Source: patent publication US10633386B2, “BET protein degraders” (THE REGENTS OF THE UNIVERSITY OF MICHIGAN, priority 2016, dated 2020)

What was measured:
TNBC cell lines [1] = assay: Combination growth inhibition with BCL-2/BCL-XL inhibitors (Bliss independence model); type: cell-based; details: 6 of the 7 TNBC cell lines tested (data not shown)
Procedure: MCL1 and BCL-XL are important but independent determinants of cell survival in TNBC (Goodwin et al., Cell Death Differ 22:2098-106 (2015); Xiao et al., Mol. Cancer Ther. 14:1837-47 (2015); Petrocca et al., Cancer Cell 24:182-96 (2013)). A panel of TNBC cell lines were treated with Cpd. No. 4 in combination with BCL-2 and/or BCL-XL inhibitors, and the excess growth inhibition was computed over the Bliss independence model for each combination pairs (Berenbaum, Adv. Cancer Res., 35:269-335 (1981)). ABT-263 (Tse et al., Cancer Res. 68:3421-8 (2008)) and BM-1197 (Bai et al., PLoS One 2014; 9(6):e99404 doi 10.1371/journal.pone.0099404) were selected as dual BCL-2/BCL-XL inhibitors, […] as a selective BCL-XL inhibitor (Tao et al., ASC Med. Chem. Lett. 5:1088-93 (2014)) and ABT-199 as a selective BCL-2 inhibitor (Souers et al., Nat. Med. 19:202-8 (2013)).

TNBC cell lines [2] = assay: Combination apoptosis induction (immunoblotting and/or Annexin-PI staining); type: cell-based; details: for effect on Cpd. No. 4-induced apoptosis: MDA-MB-468, 250 nM with Cpd. No. 4 50 nM (FIG. 14)
Procedure: Immunoblotting and/or Annexin-PI staining confirmed that BM-1197 (250 nM), ABT-263 (250 nM), and A-1155463 (250 nM) potentiated Cpd. No. 4-induced apoptosis (50 nM) in MDA-MB-468 (FIG. 14) and other TNBC cell lines (data not shown). Synergistic induction of apoptosis by Cpd. […] No. 4-induced apoptosis in these cell lines. […] A with either BM-1197 (FIGS. 15 and 16) or ABT-263 (data not shown). […] No. 4 and BM-1197 was also detected in additional TNBC cell lines responsive to Cpd. No. 4-induced apoptosis (BT-20 and MDA-MB-157) (data not shown), further supporting that BCL-XL inhibitors potentiate Cpd. No. 4-induced apoptosis in TNBC.

MDA-MB-231 = assay: Cell growth inhibition (CellTiter-Glo), MDA-MB-231; type: cell-based, human; details: Homo sapiens, MDA-MB-231, 96 h, MDA-MB-231 cells, 4 days
Procedure: (§1) Cell growth inhibitory activity of representative BET bromodomain degraders was determined using CellTiter-Glo® Luminescent Cell Viability Assay. Cells were seeded in 384-well white opaque cell culture plates at a density of 2,000 cells/well with serially diluted compounds and incubated at 37° C. in an atmosphere of 95% air and 5% CO2 for 4 days. Cell viability was determined using the CellTiter-Glo® Luminescent Cell Viability Assay Kit (Promega, Madison, Wis.) according to the manufacture's instruction. Briefly, a volume of CellTiter-Glo® Reagent equal to the volume of cell culture medium was added to each well, and then the plates were incubated at room temperature for 10-20 minutes. The luminescent signal was measured using a Tecan Infinite M1000 multimode microplate reader (Tecan, Morrisville, N.C.). The half maximal inhibitory concentration (IC50) was calculated using the GraphPad Prism 5 software (GraphPad Software, La Jolla, Calif.).

MOLM-13 = assay: Cell growth inhibition (CellTiter-Glo), MOLM-13; type: cell-based; details: Homo sapiens, MOLM-13, 96 h, MOLM-13 cells, 4 days
Procedure: as §1

MDA-MB-231 xenograft = assay: In vivo antitumor activity in MDA-MB-231 xenograft model (Example 25); design: species or system SCID mice
Procedure: (§2) For the in vivo efficacy experiments of this example, when tumors reached 80-200 mm^3, SCID mice were randomized into groups. Cpd. A, Cpd. No. 4, Cpd. No. 6, or vehicle control (10% PEG400: 3% Cremophor: 87% PBS, or 2% TPGS:98% PEG200) was given at the dose and duration indicated. Tumor sizes and animal weights were measured 2-3 times per week. Tumor volume (mm^3)=(length×width^2)/2. Tumor growth inhibition was calculated as TGI (%)=(Vc−Vt)/(Vc−Vo)*100, where Vc, Vt are the median of control and treated groups at the end of the study and Vo at the start. All the in vivo studies were performed under an animal protocol approved by the University Committee on Use and Care of Animals of the University of Michigan, in accordance with the recommendations in the Guide for the Care and Use of Laboratory Animals of the National Institutes of Health.
(§3) No. 4 was determined in xenograft tumor models of TNBC cell lines.

MDA-MB-468 xenograft = assay: In vivo antitumor activity in MDA-MB-468 xenograft model; design: species or system SCID mice
Procedure: as §2, §3

SMILES: CN(C)CC#Cc1ccc(OCCCc2sc(N3CCc4cccc(C(=O)Nc5nc6ccccc6s5)c4C3)nc2C(=O)O)c(F)c1 [A-1155463]
- synergy with Cpd. No. 4 (excess growth inhibition over Bliss independence model) (TNBC cell lines [1]): Modest to strong synergy
- effect on Cpd. No. 4-induced apoptosis (TNBC cell lines [2]): potentiated

SMILES: CC1(C)CCC(c2ccc(Cl)cc2)=C(CN2CCN(c3ccc(C(=O)NS(=O)(=O)c4ccc(N[C@H](CCN5CCOCC5)CSc5ccccc5)c(S(=O)(=O)C(F)(F)F)c4)cc3)CC2)C1 [ABT-263]
- synergy with Cpd. No. 4 (excess growth inhibition over Bliss independence model) (TNBC cell lines [1]): Modest to strong synergy
- effect on Cpd. No. 4-induced apoptosis (TNBC cell lines [2]): potentiated

SMILES: Cc1c(S(C)(=O)=O)c(-c2cc(F)cc(N3CCN(c4ccc(NS(=O)(=O)c5ccc(N[C@H](CCN6CCC(O)CC6)CSc6ccccc6)c(S(=O)(=O)C(F)(F)F)c5)cc4)CC3)c2)c(-c2ccc(Cl)cc2)n1C(C)C [BM-1197]
- synergy with Cpd. No. 4 (excess growth inhibition over Bliss independence model) (TNBC cell lines [1]): Modest to strong synergy
- apoptosis induction by the combination of Cpd. No. 4 and BM-1197 (TNBC cell lines [2]; BT-20 and MDA-MB-157 (data not shown)): synergistic apoptosis induction
- effect on apoptosis induction by Cpd. No. 4 (TNBC cell lines [2]; MDA-MB-213 cells (FIG. 15)): enhances apoptosis induction by Cpd. No. 4
- effect on apoptosis induction by Cpd. No. 4 (TNBC cell lines [2]; MDA-MB-453 cells (FIG. 16)): enhances apoptosis induction by Cpd. No. 4
- effect on Cpd. No. 4-induced apoptosis (TNBC cell lines [2]): potentiated

SMILES: CCn1nc(C2CC2)cc1Nc1nc(C(=O)NCCCCCc2cccc3c2CN(C2CCC(=O)NC2=O)C3=O)nc2[nH]c3cc(-c4c(C)noc4C)c(OC)cc3c12 (centres unmarked) [Cpd. No. 6]
- IC50 (MDA-MB-231): 1 nM
- IC50 (MOLM-13): < 0.8 nM
- tumor growth (MDA-MB-231 xenograft; MDA-MB-231 xenograft model in mice (FIG. 10)): reduce tumor growth
- antitumor activity relative to Cpd. A at 50 mg/kg, daily oral dosing, 5 days a week for 3 weeks (MDA-MB-231 xenograft; MDA-MB-231 xenograft model, 5 mg/kg, IV, 3 times per week for 3 weeks): comparable to or stronger than that of Cpd. A
- antitumor activity (MDA-MB-231 xenograft; MDA-MB-231 xenograft model, 5 mg/kg, IV, 3 times per week for 3 weeks (FIG. 10)): exerted antitumor activity
- tumor growth (MDA-MB-468 xenograft; MDA-MB-468 xenograft model in mice (FIG. 11)): reduce tumor growth
- antitumor activity relative to Cpd. A at 50 mg/kg, daily oral dosing, 5 days a week for 3 weeks (MDA-MB-468 xenograft; MDA-MB-468 xenograft model, 5 mg/kg, IV, 3 times per week for 3 weeks): comparable to or stronger than that of Cpd. A
- antitumor activity (MDA-MB-468 xenograft; MDA-MB-468 xenograft model, 5 mg/kg, IV, 3 times per week for 3 weeks (FIG. 11)): exerted antitumor activity
